Data taken from patent publication US4012394A, “Indole derivatives” (Labaz, priority 1973, dated 1977).
Read-outs that look alike come from different tables or passages of the source.

How the values were obtained:
[1] = system: vena cave inferior of the rat (film of fibrin); assay: fibrinolytic activity, procedure of TODD adapted to the vena cave inferior of the rat; assay type: in vivo; settings: for change in vivo at 10 mg/kg: ip, 40 min, read-out: Fibrinolytic index in % (average increase in fibrinolytic effect compared with control animals); for fibrinolytic index: 100 mg/kg
Experimental: Forschumg, 20, 358, 1970. […]
Male rats weighing 150 to 200 g. and having fasted for 24 hours were divided into two groups. The animals of one group were given the above-indicated dose of the compound to be tested. […] After 40 minutes, the treated animals were sacrificed simultaneously with the control animals, the veins immediately removed, rinsed with physiological salt solution, frozen and cut into pieces having a thickness of 20 microns. On each piece, a film of fibrin was formed by the application of a bovine fibrinogenous solution, rich in plasminogen, and of a thrombin solution.
All the preparations were then fixed with a 10% solution of neutral formol, stained with haematoxylin of Harris and covered with gelatine.
Value = 0: The film of fibrin was intact.
Value = 1: The lysis zones in the endothelium were disseminated.
Value = 2:The lysis zones were larger and more or less joined.
Value = 3:The fibrin in contact with the endothelium was almost completely decomposed.
The fibrinolytic index represents the average of the values of the reactions obtained for each incubation.

[2] = acute toxicity in the rat; settings: rat, in vivo
Experimental: (§1) A certain number of toxicity tests were also carried out on rats and mice and in particular acute toxicity tests.

carragheenin oedema = assay: JANSSEN test, carragheenin-induced paw oedema in the rat; assay type: in vivo; settings: for ED50: 3 h, read-out: AD50 (amount of compound required to ensure a 50% reduction of the oedema); for anti-inflammatory activity (in words): in vivo
Experimental: The anti-inflammatory activity of the compounds of the invention was determined on the rat by means of the JANSSEN test involving the use of carragheenin as inflammatory agent.
Into the plantar aponeurosis of the back paws of a group of female rats 0.05 ml. of a 1 % suspension of carragheenin was injected one hour after the compound to be tested had been administered by oral route. The size of the paw was measured by plethysmograph both before and three hours after administration of the carragheenin. The anti-inflammatory activity was calculated as the percentage of reduction of the resulting oedema as compared with control animals which had received the same dose of carragheenin without any anti-inflammatory agent. The AD50 was taken as the amount of compound required to ensure a 50% reduction of the oedema.

in vivo = settings: rat, in vivo
Experimental: (§2) As another means of evaluating the utility of the compounds of the invention as anti-inflammatory agents in comparison with the three substances indicated above, trials were carried out on fasting rats in order to determine the degree to which the compounds studied produced gastric ulcers in the animals so treated.

gastric ulcers = assay: in vivo; settings: for irritant (ulcer-producing) action relative to Compound A: fasting rats, gastric ulcers, times as irritant as Compound A
Experimental: as §2

rats = assay: acute toxicity in the rat; settings: compared with indomethacin and/or phenylbutazone
Experimental: as §1

[3] = acute toxicity in the mouse; settings: in vivo, seven days of observation
[4] = 10 mg/kg, intraperitoneal, rat, 40 minutes

Work on CC(C)c1c(C(=O)c2ccccn2)c2ccccc2n1CCN(C)C [(1-β-dimethylaminoethyl-2-isopropyl-3-indolyl) (2-pyridyl) ketone] yielded a change in vivo at 10 mg/kg ([1]; Rattus norvegicus) of 21%.

For CC(C)c1c(C(=O)c2cccnc2)c2ccccc2n1CCN(C)C [(1-β-dimethylaminoethyl-2-isopropyl-3-indolyl) (3-pyridyl) ketone], the change in vivo at 10 mg/kg ([1]; Rattus norvegicus) was 24%.

For CC(C)c1c(C(=O)c2ccncc2)c2ccccc2n1CCN(C)C [(1-β-dimethylaminoethyl-2-isopropyl-3-indolyl) (4-pyridyl) ketone], the change in vivo at 10 mg/kg ([1]; Rattus norvegicus) was 44%.

Compound CCCc1c(C(=O)c2ccccn2)c2ccccc2n1CCN(C)C [(1-β-dimethylaminoethyl-2-n-propyl-3-indolyl) (2-pyridyl) ketone] has a change in vivo at 10 mg/kg ([1]; Rattus norvegicus) of 50%.

Compound CN(C)CCn1c(-c2ccccc2)c(C(=O)c2ccccn2)c2ccccc21 [(1-β-dimethylaminoethyl-2-phenyl-3-indolyl) (2-pyridyl) ketone] has a change in vivo at 10 mg/kg ([1]; Rattus norvegicus) of 50%.

CN(C)CCn1c(-c2ccccc2)c(C(=O)c2cccnc2)c2ccccc21 [(1-β-dimethylaminoethyl-2-phenyl-3-indolyl) (3-pyridyl) ketone] gave a change in vivo at 10 mg/kg ([1]; Rattus norvegicus) of 96%.

CC(C)c1c(C(=O)c2cccnc2)c2ccccc2n1CCCN(C)C [(1-γ-dimethylaminopropyl-2-isopropyl-3-indolyl) (3-pyridyl) ketone] showed an LD50 ([2]; po) of over 2000 mg/kg.

Compound CC(C)c1c(C(=O)c2ccncc2)c2ccccc2n1CCCN(C)C [(1-γ-dimethylaminopropyl-2-isopropyl-3-indolyl) (4-pyridyl) ketone] has a change in vivo at 10 mg/kg ([1]; Rattus norvegicus) of 30%.

Compound CCCc1c(C(=O)c2ccccn2)c2ccccc2n1CCCN(C)C [(1-γ-dimethylaminopropyl-2-n-propyl-3-indolyl) (2-pyridyl) ketone] has a change in vivo at 10 mg/kg ([1]; Rattus norvegicus) of 66%.

With CN(C)CCCn1c(-c2ccccc2)c(C(=O)c2ccccn2)c2ccccc21 [(1-γ-dimethylaminopropyl-2-phenyl-3-indolyl) (2-pyridyl) ketone] the change in vivo at 10 mg/kg ([1]; Rattus norvegicus) was 46%.

For CN(C)CCCn1c(-c2ccccc2)c(C(=O)c2cccnc2)c2ccccc21 [(1-γ-dimethylaminopropyl-2-phenyl-3-indolyl) (3-pyridyl) ketone], the change in vivo at 10 mg/kg ([1]; Rattus norvegicus) was 46%.

CC(C)c1c(C(=O)c2ccccn2)c2ccccc2n1CCCN1CCCCC1 [(1-γ-piperidinopropyl-2-isopropyl-3-indolyl) (2-pyridyl) ketone] showed a change in vivo at 10 mg/kg ([1]; Rattus norvegicus) of 123%.

For CC(C)c1c(C(=O)c2cccnc2)c2ccccc2n1CCCN1CCCCC1 [(1-γ-piperidinopropyl-2-isopropyl-3-indolyl) (3-pyridyl) ketone], the change in vivo at 10 mg/kg ([1]; Rattus norvegicus) was 18%.

In the case of CC(C)c1[nH]c2ccccc2c1C(=O)c1cccnc1 [(2-isopropyl-3-indolyl) (3-pyridyl) ketone, reference compound], the change in vivo at 10 mg/kg [1, 4] is reported as 5%.

CC(C)c1[nH]c2ccccc2c1C(=O)c1ccncc1 [(2-isopropyl-3-indolyl)(4-pyridyl) ketone, reference compound] gave a change in vivo at 10 mg/kg [1, 4] of 10%.

With CCCc1[nH]c2ccccc2c1C(=O)c1ccccn1 [(2-n-propyl-3-indolyl)(2-pyridyl) ketone, reference compound] the fibrinolytic index ([1]; rat) was 2%.

For O=C(c1cccnc1)c1c(-c2ccccc2)[nH]c2ccccc12 [(2-phenyl-3-indolyl)(3-pyridyl) ketone, reference compound], the fibrinolytic index ([1]; rat) was 20%.

For CC(=O)Oc1ccccc1C(=O)O [Acetylsalicylic acid], the ED50 (carragheenin oedema; Rattus norvegicus, po) was 110 mg/kg, the “anti-inflammatory activity (in words)” value (carragheenin oedema; rat) was “less active than Compound A” and the selectivity ratio (in vivo) was 2. The “irritant (ulcer-producing) action relative to Compound A” value (gastric ulcers) was “one-and-a-half”.

With CC(C)c1c(C(=O)c2cccnc2)c2ccccc2n1C [Compound A, (1-methyl-2-isopropyl-3-indolyl) (3-pyridyl) ketone] the LD50 ([2]; ip) was 425 mg/kg, the LD50 ([2]; po) was 2400 mg/kg and the “toxicity (in words)” value (rats) was “less toxic than both indomethacin and phenylbutazone”. For the same compound, the ED50 (carragheenin oedema; Rattus norvegicus, po) was 15 mg/kg, the LD50 at 168 h ([3]; ip, intraperitoneal route) was 3250 mg/kg and the LD50 at 168 h ([3]; po, intragastric route) was 900 mg/kg. For the same compound, the selectivity ratio (in vivo) was 20 and the “distance of irritant dose from anti-inflammatory dose (in words)” value (gastric ulcers; compared with indomethacin, phenylbutazone or acetylsalicylic acid) was “irritant dose is much farther removed from the anti-inflammatory dose”.

With COc1ccc2c(c1)c(CC(=O)O)c(C)n2C(=O)c1ccc(Cl)cc1 [Indomethacin] the LD50 ([2]; po) was 22.5 mg/kg, the ED50 (carragheenin oedema; Rattus norvegicus, po) was 4 mg/kg and the “anti-inflammatory activity (in words)” value (carragheenin oedema; rat) was “more powerful anti-inflammatory agent than Compound A”. The selectivity ratio (in vivo) was 1.3 and the “irritant (ulcer-producing) action relative to Compound A” value (gastric ulcers) was “sixty”.

With CCCCC1C(=O)N(c2ccccc2)N(c2ccccc2)C1=O [Phenylbutazone] the ED50 (carragheenin oedema; oral, rat, one hour before carragheenin, oedema measured three hours after) was 22 mg/kg and the “anti-inflammatory activity (in words)” value (carragheenin oedema; rat) was “less active than Compound A”.

With CN(C)CCn1c(-c2ccc(F)cc2)c(C(=O)c2cccnc2)c2ccccc21 [[1-β -dimethylaminoethyl-2-(4-fluoro-phenyl)-3-indolyl] (3-pyridyl) ketone] the change in vivo at 10 mg/kg ([1]; Rattus norvegicus) was 90%.

In the case of CN(C)CCn1c(-c2ccc(Cl)cc2)c(C(=O)c2cccnc2)c2ccccc21 [[1-β-dimethylaminoethyl-2-(4-chloro-phenyl)-3-indolyl] (3-pyridyl) ketone], the change in vivo at 10 mg/kg ([1]; Rattus norvegicus) is reported as 40%.

Work on CN(C)CCn1c(-c2ccc(Cl)cc2)c(C(=O)c2ccncc2)c2ccccc21 [[1-β-dimethylaminoethyl-2-(4-chloro-phenyl)-3-indolyl] (4-pyridyl) ketone] yielded a change in vivo at 10 mg/kg ([1]; Rattus norvegicus) of 42%.

CN(C)CCn1c(-c2ccc(F)cc2)c(C(=O)c2ccncc2)c2ccccc21 [[1-β-dimethylaminoethyl-2-(4-fluoro-phenyl)-3-indolyl] (4-pyridyl) ketone] gave a change in vivo at 10 mg/kg ([1]; Rattus norvegicus) of 50%.

COc1ccc(-c2c(C(=O)c3ccccn3)c3ccccc3n2CCN(C)C)cc1 [[1-β-dimethylaminoethyl-2-(4-methoxy-phenyl)-3-indolyl] (2-pyridyl) ketone] gave a change in vivo at 10 mg/kg ([1]; Rattus norvegicus) of 45%.

With COc1ccc(-c2c(C(=O)c3cccnc3)c3ccccc3n2CCN(C)C)cc1 [[1-β-dimethylaminoethyl-2-(4-methoxy-phenyl)-3-indolyl] (3-pyridyl) ketone] the change in vivo at 10 mg/kg ([1]; Rattus norvegicus) was 133%.

COc1ccc(-c2c(C(=O)c3ccncc3)c3ccccc3n2CCN(C)C)cc1 [[1-β-dimethylaminoethyl-2-(4-methoxy-phenyl)-3-indolyl] (4-pyridyl) ketone] gave a change in vivo at 10 mg/kg ([1]; Rattus norvegicus) of 42%.

With O=C(c1ccncc1)c1c(-c2ccc(Cl)cc2)n(CCN2CCCCC2)c2ccccc12 [[1-β-piperidinoethyl-2-(4-chloro-phenyl)-3-indolyl] (4-pyridyl) ketone] the change in vivo at 10 mg/kg ([1]; Rattus norvegicus) was 50%.

With CN(C)CCCn1c(-c2ccc(F)cc2)c(C(=O)c2cccnc2)c2ccccc21 [[1-γ-dimethylaminopropyl-2-(4-fluoro-phenyl)-3-indolyl] (3-pyridyl) ketone] the change in vivo at 10 mg/kg ([1]; Rattus norvegicus) was 75%.

CC(C)c1c(C(=O)c2ccccn2)c2ccccc2n1C [methyl / isopropyl / 2-pyridyl, (1-methyl-2-isopropyl-3-indolyl) (2-pyridyl) ketone] showed a change in vivo at 10 mg/kg [1, 4] of 105%.

For CC(C)c1c(C(=O)c2ccncc2)c2ccccc2n1C [methyl / isopropyl / 4-pyridyl, (1-methyl-2-isopropyl-3-indolyl) (4-pyridyl) ketone], the change in vivo at 10 mg/kg [1, 4] was 165%.

CCCn1c(C(C)C)c(C(=O)c2cccnc2)c2ccccc21 [n-propyl / isopropyl / 3-pyridyl, (1-n-propyl-2-isopropyl-3-indolyl) (3-pyridyl) ketone] gave a change in vivo at 10 mg/kg ([1]; Rattus norvegicus) of 25%.

In the case of CC(C)c1c(C(=O)c2cccnc2)c2ccccc2n1CCN1CCCCC1 [piperidinoethyl / isopropyl / 3-pyridyl, (1-β-piperidinoethyl-2-isopropyl 3-indolyl) (3-pyridyl) ketone], the change in vivo at 10 mg/kg ([1]; Rattus norvegicus) is reported as 77%.
